{"source": "patent US4495199A", "about": "“Dioxolanic amine with pharmacological activity, its method of preparation, the pharmaceutical compositions containing same and their use in human medicine” (priority 1982, dated 1985)", "key": {"rat": {"tested_on": "rat", "experiment": "Acute toxicity, oral, rat", "format": "in vivo", "protocol": "(§1) The respective lethal dose 50 was calculated according to the method of Litchfield and Wilcoxon (Jl. Pharmacol. Exptl. 96 99, 1949)."}, "mouse": {"tested_on": "mouse", "experiment": "Acute toxicity, oral, mouse", "format": "in vivo", "protocol": "as §1"}, "[1]": {"tested_on": "fibrillation by chloroform in the male NMRI mouse", "experiment": "Anti-arrhythmic activity, fibrillation by chloroform in the mouse, p.o.", "format": "in vivo", "excerpt": "Tables 5 and 6 show the anti-arrythmic activity of the ITA 362 in the male NMRI mouse by oral and intraperitoneal route using the fibrillation test by chloroform in the mouse. (V. W. Lawson, J. Pharmacol. Exp. Ther. 160, 22, 1968; B. Vargaftig, J. L. Coignet. Eur.J. Pharmacol. 6, 49, 1969).\nThe activity of the two forms of maleate described in the example 4 were studied, with that in the table subtitled as isomer A corresponding to the first fraction obtained in the aforementioned example, and isomer B corresponding to the second fraction."}, "Hygroscopicity": {"experiment": "Hygroscopicity", "format": "physicochemical"}, "[2]": {"tested_on": "T wave in the conscious dog", "experiment": "Anti-angina activity, amplitude increase protection of the T wave by vasopression in the conscious dog", "format": "in vivo", "excerpt": "The antiangina activity was also compared with that of the nitroglycerine by means of the amplitude increase protection test of the T wave for vasopression in the conscious dog. (A. Lindner, M. London, G. Werner, Scheiz. Med. Wsohr. 83, 360, 1953; J. Papp. L. Szekeres. Arch. Int. Pharmacodyn, 160, 1, 1966)."}, "hindquarters of rats": {"tested_on": "hindquarters of rats", "experiment": "Vasodilatory activity, perfusion of the hindquarters of rats with a hyperpotasemic solution", "design": "species or system rat", "conditions": "summary statement", "excerpt": "In the Table 3 is shown the results of the vasodilatory activity of the ITA 362 in the perfusion test of the hindquarters of rats with a hyperpotasemic solution. (F. N. Fastier, F. M. Smirk. Jl, Pharmacolog. Exp. Therapy. 89. 256, 1947)."}}, "note": "Where a name gives a salt, the structure may show the parent alone.", "data": [{"smiles": "CCCCNCC1COC(c2ccc(Cl)cc2)(c2cc3ccccc3o2)O1", "note": "(stereo not drawn) [ITA 362 maleate, 2-(2'-benzofuranil)-4-butylaminomethyl-2-p-chlorophenyl-1,3-dioxolane, maleate]", "values": [{"measurement": "LD50", "setting": "rat; rat, oral", "value": "> 4000", "unit": "mg/kg"}, {"measurement": "LD50", "setting": "mouse", "value": "> 4000", "unit": "mg/kg"}]}, {"smiles": "CCCCNCC1COC(c2ccc(Cl)cc2)(c2cc3ccccc3o2)O1", "note": "(stereo not drawn) [ITA 362 citrate]", "values": [{"measurement": "% protection versus fibrillation", "setting": "[1]; 3.125 mg/kg p.o.", "value": 10, "unit": "%"}, {"measurement": "hygroscopicity", "setting": "Hygroscopicity", "value": "highly hydroscopic"}]}, {"smiles": "O=[N+]([O-])OCC(CO[N+](=O)[O-])O[N+](=O)[O-]", "note": "[Nitroglycerine, reference compound]", "values": [{"measurement": "quot. Control/treatment", "setting": "[2]; 0.4 mg/kg i.v.", "value": 1.520}, {"measurement": "% Prot.", "setting": "[2]; 0.4 mg/kg i.v., t student n.s.", "value": 28.9, "unit": "%"}]}, {"smiles": "CCCCNCC1COC(c2ccc(Cl)cc2)(c2cc3ccccc3o2)O1", "note": "(single isomer, unassigned) [ITA 362 maleate (isomer A)]", "values": [{"measurement": "ED50", "setting": "[1]; Mus musculus, po, read-out: ED50 and confidence limits p < 0.05, p.o., dose column in mg/kg", "value": 35.4, "unit": "mg/kg"}]}, {"smiles": "CCCCNCC1COC(c2ccc(Cl)cc2)(c2cc3ccccc3o2)O1", "note": "(stereo not drawn) [ITA 362, 2-(2'-benzofuranil)-4-n-butylaminomethyl-2-p-chlorophenyl-1,3-dioxolan]", "values": [{"measurement": "toxicity (in words)", "setting": "rat; summary statement, species not specified", "value": "low toxicity"}, {"measurement": "vasodilatory activity (in words)", "setting": "hindquarters of rats", "value": "intense"}, {"measurement": "Antiangina activity relative to nitroglycerine", "setting": "[2]; 1 mg/kg i.v. vs nitroglycerine 0.4 mg/kg", "value": "greater than that of nitroglycerine"}, {"measurement": "anti-angina activity (in words)", "setting": "[2]; summary statement", "value": "intense"}, {"measurement": "anti-arrhythmic activity (in words)", "setting": "[1]; summary statement", "value": "intense"}]}]}
